In one test the test system is skin. The experiment in a line: Preliminary application of ribose to skin without penetrant. The format is in vivo. Particulars: topical, no penetrant. From the text: The skin is a barrier. Preliminary effects to determine the effect on improving skin by the application of ribose were unsuccessful, leading the Applicants to the realization that ribose may not have penetrated to the basal cells and dermis. To get penetration it is advantageous to provide a penetrant to increase the concentration of active ingredient at the dermis and epidermis. A preferred penetrant is ethanol, which will be incorporated into the composition at a concentration of 0.1 to 15%, most preferably 10% weight to volume. The active ingredient may be at a concentration of from 0.5 to 10%, preferably 1%, weight to volume.

The next test deals with lymphocytes. Particulars: previously shown by Applicants; cited from earlier work.
Another test concerns skeletal muscle. Particulars: oral administration; cited from earlier work.
The next test deals with Fibroblast cell cultures. The experiment in a line: Recovery of ATP in cultured fibroblasts after hypoxic stress. The format is cell-based. The note with it: fibroblasts at about 80% confluence, six hours hypoxic atmosphere, fresh medium, inspected at 12, 24 and 48 hours; first experiment. Here is the method: Based on this information, Applicants believe that the same effect might be shown in cell culture with skin cells. The first skin cell be tested in vitro was the fibroblast, the culture of which is well known. The Coriell Institute for medical research publishes a web site with detailed instructions, the teachings of which are incorporated by reference. (Http:/locus.umdnj.edu/cer/faq/fibro.html.) Fibroblast cell cultures were tested to determine an optimal level of ribose as compared to glucose control.
To determine a protective effect of ribose, test and control plates were grown to about 80% confluence and subjected to a simulated environmental stress, six hours under an hypoxic atmosphere. Following exposure, the medium was aspirated off the culture and fresh medium applied. Cultures were inspected at 12, 24 and 48 hours to determine recovery of ATP to pre-hypoxia levels.

SMILES strings stand for the structures.

As for `O=C[C@H](O)[C@H](O)[C@H](O)CO` [D-ribose], the “effect on improving skin by the application of ribose” value in the test with skin was “unsuccessful”. Moreover, the “growth of lymphocytes in cell culture” value with lymphocytes is “stimulates the growth”. Moreover, in the test on skeletal muscle, the “ATP levels in skeletal muscle” value is on record as “raises ATP levels”. The “recovery of ATP to pre-hypoxia levels (of base ATP levels)” value in the test on Fibroblast cell cultures was 19%.

Values taken from patent US20090197819A1, “Compositions for improving and repairing skin” (priority 2007, published 2009).
